In patent US9944613B2, “Fumagillol spirocyclic compounds and fused bicyclic compounds and methods of making and using same” (Zafgen, Inc., priority 2015, dated 2018):
Counter-ions that a name gives are not always drawn. Like-named read-outs stand apart in the source and are kept apart here.

Key:
recombinant human MetAP2 = target: T1, recombinant human MetAP2 (Homo sapiens, UniProt P50579); experiment: Inhibition of recombinant human MetAP2 activity (MAS peptide / amino acid oxidase / Amplex assay); assay type: biochemical
T1 construct: Flag; made in house
T1 sequence (P50579 whole entry): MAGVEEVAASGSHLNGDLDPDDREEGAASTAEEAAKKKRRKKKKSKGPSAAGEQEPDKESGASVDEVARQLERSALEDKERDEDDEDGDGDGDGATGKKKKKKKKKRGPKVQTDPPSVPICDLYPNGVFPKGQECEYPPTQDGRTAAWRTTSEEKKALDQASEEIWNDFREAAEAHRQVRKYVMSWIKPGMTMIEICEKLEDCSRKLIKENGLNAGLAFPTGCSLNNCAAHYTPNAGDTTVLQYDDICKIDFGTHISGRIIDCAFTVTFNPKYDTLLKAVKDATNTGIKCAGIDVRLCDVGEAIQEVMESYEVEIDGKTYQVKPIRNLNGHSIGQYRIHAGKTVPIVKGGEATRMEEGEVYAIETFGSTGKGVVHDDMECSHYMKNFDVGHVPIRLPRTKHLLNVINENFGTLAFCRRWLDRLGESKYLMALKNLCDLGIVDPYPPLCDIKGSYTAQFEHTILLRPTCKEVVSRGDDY
Description: Compounds are tested for their capacity to inhibit recombinant human MetAP2 activity using the following assay.
Flag tagged Human recombinant MetAP2 expressed and isolated for use as the enzyme source. 10 mM stock solutions of compounds were prepared in 100% DMSO and further diluted in 100% DMSO required concentration to 1 mM stocks. The stock compound solutions and DMSO vehicle controls were diluted to target final compound concentrations using assay buffer to a final concentration of 50 mM HEPES containing 100 mM NaCl, pH adjusted to 7.5. The MAS peptide was formulated to a 7.5 mM stock in distilled water and prior to use further diluted 1:4. […] 40 μl of enzyme was mixed with 100 μl of MnCl2 then further diluted in assay buffer to a final concentration of 16 μg/ml. To test for compound effect on MetAP2 enzyme activity, 5 μl of test compound, 10 μl of MAS substrate/amino acid oxidase mixture, 10 μl of MetAP2 was added to test wells in a 384 well black plate with blank wells containing no enzyme, replaced with 10 μl of assay buffer. All compounds were tested in duplicate on two occasions on the same day.
The plate was sealed with a TopSeal A cover and mixed briefly on an orbital mixer at 900 rpm. The plate was incubated for a further 25 minutes at 25° C. A 5× stock of Amplex buffer was prepared (0.25M sodium phosphate, pH 7.4) and stored at 4° C. When preparing for use the stock was diluted with distilled water. […] Horse radish peroxidase was diluted in […] of Amplex buffer, 100 μl of this was combined with 50 μl of Amplex Ultrared in […] of 1× Amplex buffer to generate sufficient detection reagent for a 384 well plate. 25 μl detection reagent was added to each well of the test plate, which was re-sealed and mixed briefly on an orbital shaker. The plate was transferred to an Envision Multi-label reader and RFU measured corresponding to excitation 531 nm and emission 595 nm. At the end of the MetAP2 incubation 25 μl Amplex/HRP mixture per well was added and the plate read plate on a plate reader.

[1] = tested on: rat DIO model (Sprague Dawley rats on high fat diet); experiment: 11 day rat DIO model, weight loss vs. vehicle; assay type: in vivo; conditions: for inhibition in vivo at 0.3 mg/kg: Rattus norvegicus, 264 h, 0.3 mpk sc once a day for 11 days; for Rat @ 1.0 mpk sc (%): 1.0 mpk sc once a day for 11 days
Text: The objective of this study design is to investigate the efficacy of disclosed compounds in an 11 day rat DIO model used to screen compounds for pharmacologic efficacy on endpoints related to obesity and metabolism. Effects on body weight, food intake, hematology and blood chemistries were the primary readouts of this study design. Male Sprague Dawley rats, approximately 8 weeks of age, were ordered from a certified vendor and housed on irradiated corncob bedding in micro-isolator cages, on a 12-hour light-dark cycle (0700-1900) at 68-74° F. and 30-70% humidity. Rats were fed Research Diets D12451 (45% High Fat) and provided water ad libitum. Rats were received and housed in the facility for at least two or three weeks prior to start of test article administration. On Day −4 or −3, rats were randomized into study groups based on body weight and body weights were continued to be recorded daily for the duration of the study. Daily food intake was assessed starting on Study Day −2 by weighing the hopper including the food to avoid loss of food in transfer.
(§1) Compounds were formulated into a 100% DMSO stock (at 9 mg/mL) prior to the start, and further diluted into the target working concentration using the vehicle of 10% DMSO in water. Prior to test article administration, starting on Day −3 a dosing acclimation occured with all animals receiving a subcutaneous injection of vehicle (10% DMSO) only for 3 days. Starting on Day 1, test compounds or vehicle were administered based on individual body weight, subcutaneously, once a day for 11 days. All animals were sacrificed on Day 11, approximately 2 hours following the final dosing on Day 11. After sacrifice, whole blood was collected and analyzed for hematology and blood chemistry parameters.
(§2) Compounds were tested for weight loss vs. vehicle at 0.3 and 1.0 mpk sc (mg per kg animal weight delivered subcutaneously), and the results are shown in Table 2 below.

[2] = tested on: Diet Induced Obese (DIO) C57BL/6 mice; experiment: 10 day DIO mouse model, weight loss vs. vehicle; assay type: in vivo; conditions: 240 h, 0.3 mpk sc once a day for 10 days
Text: The objective of this study design was to investigate the efficacy of disclosed compounds in a 10 day DIO mouse model. Effects on body weight, food intake, hematology and blood chemistry were the primary readouts of this study design. Male, Diet Induced Obese (DIO) C57BL/6 mice, 19-21 weeks of age (13-15 weeks on high fat diet) were ordered from a certified vendor and upon receipt were housed on irradiated corncob bedding in micro-isolator cages on a 12-hour light-dark cycle (0700-1900) at 68-74° F. and 30-70% humidity. Mice were fed Research Diets D12492 (60% Kcal fat, 20% Kcal carbohydrate and 20% protein) and provided water ad libitum. DIO mice were received and housed in the facility for approximately two weeks prior to the start of test article administration. On Day −4 or −3, mice were randomized into study groups based on body weight and body weights were continued to be recorded daily for the duration of the study. Daily food intake was assessed starting on Study Day −2 by weighing of the food with hopper together to avoid loss of food in transfer.
as §1, with “for 10” for “for 11”, “All mice” for “All animals”, “11, 24” for “11, approximately 2”, “Day 10.” for “Day 11.”
as §2

[3] = Flag tagged human recombinant MetAP2, 25 minutes at 25° C., read-out: MetAP2 IC50

Row | SMILES | IC50 (recombinant human MetAP2; [3]) | inhibition in vivo at 0.3 mg/kg [1] | inhibition in vivo at 0.3 mg/kg [2] | Rat @ 1.0 mpk sc (%) [1] | IC50 (recombinant human MetAP2)
1 | CO[C@@H]1[C@H](OC(=O)N2C[C@H]3CN(CC(F)F)C[C@H]3C2)CC[C@]2(CO2)[C@H]1[C@@]1(C)O[C@@H]1CC=C(C)C [Example 19, (3aR,6aS)-((3R,4S,5S,6R)-5-methoxy-4-((2R,3R)-2-methyl-3-(3-methylbut-2-enyl)oxiran-2-yl)-1-oxaspiro[2.5]octan-6-yl) 5-(2,2-difluoroethyl)hexahydropyrrolo[3,4-c]pyrrole-2(1H)-carboxylate] | 50 to 500 nM | 7.6% | 22.6% | – | –
2 | CO[C@@H]1[C@H](OC(=O)N2CCC3(CCOCC3)CC2)CC[C@]2(CO2)[C@H]1[C@@]1(C)O[C@@H]1CC=C(C)C [Example 1, (3R,4S,5S,6R)-5-methoxy-4-((2R,3R)-2-methyl-3-(3-methylbut-2-enyl)oxiran-2-yl)-1-oxaspiro[2.5]octan-6-yl 3-oxa-9-azaspiro[5.5]undecane-9-carboxylate] | 50 to 500 nM | 10.3% | 17% | 16.3% | –
3 | CO[C@@H]1[C@H](OC(=O)NC2CC3(C2)CN(C)C3)CC[C@]2(CO2)[C@H]1[C@@]1(C)O[C@@H]1CC=C(C)C [Example 10, (3R,4S,5S,6R)-5-methoxy-4-((2R,3R)-2-methyl-3-(3-methylbut-2-enyl)oxiran-2-yl)-1-oxaspiro[2.5]octan-6-yl 2-methyl-2-azaspiro[3.3]heptan-6-ylcarbamate formate] | < 50 nM | 2% | 8.4% | 7.2% | –
4 | CO[C@@H]1[C@H](OC(=O)N2C[C@H]3COC[C@H]3C2)CC[C@]2(CO2)[C@H]1[C@@]1(C)O[C@@H]1CC=C(C)C [Example 13, (3aR,6aS)-((3R,4S,5S,6R)-5-methoxy-4-((2R,3R)-2-methyl-3-(3-methylbut-2-enyl)oxiran-2-yl)-1-oxaspiro[2.5]octan-6-yl) tetrahydro-1H-furo[3,4-c]pyrrole-5(3H)-carboxylate] | – | 3.1% | 16.9% | – | –
5 | CO[C@@H]1[C@H](OC(=O)N2CCC3(CCN(CC(F)F)CC3)CC2)CC[C@]2(CO2)[C@H]1[C@@]1(C)O[C@@H]1CC=C(C)C [Example 14, (3R,4S,5S,6R)-5-methoxy-4-((2R,3R)-2-methyl-3-(3-methylbut-2-enyl)oxiran-2-yl)-1-oxaspiro[2.5]octan-6-yl 9-(2,2-difluoroethyl)-3,9-diazaspiro[5.5]undecane-3-carboxylate] | – | 11.6% | 23.3% | – | –
6 | CO[C@@H]1[C@H](OC(=O)N2CC3(CCOCC3)C2)CC[C@]2(CO2)[C@H]1[C@@]1(C)O[C@@H]1CC=C(C)C [Example 3, (3R,4S,5S,6R)-5-methoxy-4-((2R,3R)-2-methyl-3-(3-methylbut-2-enyl)oxiran-2-yl)-1-oxaspiro[2.5]octan-6-yl 7-oxa-2-azaspiro[3.5]nonane-2-carboxylate] | < 50 nM | 7.9% | 18.9% | – | –
7 | CO[C@@H]1[C@H](OC(=O)N2C[C@H]3CN(C)C[C@H]3C2)CC[C@]2(CO2)[C@H]1[C@@]1(C)O[C@@H]1CC=C(C)C [Example 20, (3aR,6aS)-((3R,4S,5S,6R)-5-methoxy-4-((2R,3R)-2-methyl-3-(3-methylbut-2-enyl)oxiran-2-yl)-1-oxaspiro[2.5]octan-6-yl) 5-methylhexahydropyrrolo[3,4-c]pyrrole-2(1H)-carboxylate formate] | < 50 nM | – | 1.4% | – | –
8 | CO[C@@H]1[C@H](OC(=O)N2C[C@@H]3[C@H](C2)[C@H]3C(=O)N(C)C)CC[C@]2(CO2)[C@H]1[C@@]1(C)O[C@@H]1CC=C(C)C [Example 33, (1R,5S,6R)-(3R,4S,5S,6R)-5-methoxy-4-((2R,3R)-2-methyl-3-(3-methylbut-2-en-1-yl)oxiran-2-yl)-1-oxaspiro[2.5]octan-6-yl 6-(dimethylcarbamoyl)-3-azabicyclo[3.1.0]hexane-3-carboxylate] | 50 to 500 nM | – | 13.8% | – | –
9 | CO[C@@H]1[C@H](OC(=O)N2CCC3(CC2)COC3)CC[C@]2(CO2)[C@H]1[C@@]1(C)O[C@@H]1CC=C(C)C [Example 5, (3R,4S,5S,6R)-5-methoxy-4-((2R,3R)-2-methyl-3-(3-methylbut-2-enyl)oxiran-2-yl)-1-oxaspiro[2.5]octan-6-yl 2-oxa-7-azaspiro[3.5]nonane-7-carboxylate] | – | 6.6% | 16.7% | – | < 50 nM
10 | CO[C@@H]1[C@H](OC(=O)N2CCC3(CCOC3)CC2)CC[C@]2(CO2)[C@H]1[C@@]1(C)O[C@@H]1CC=C(C)C [Example 24, (3R,4S,5S,6R)-5-methoxy-4-((2R,3R)-2-methyl-3-(3-methylbut-2-enyl)oxiran-2-yl)-1-oxaspiro[2.5]octan-6-yl 2-oxa-8-azaspiro[4.5]decane-8-carboxylate] | 50 to 500 nM | 6.3% | 20.5% | – | –
11 | CO[C@@H]1[C@H](OC(=O)N2CC3(C2)CS(=O)(=O)C3)CC[C@]2(CO2)[C@H]1[C@@]1(C)O[C@@H]1CC=C(C)C [Example 23, (3R,4S,5S,6R)-5-methoxy-4-((2R,3R)-2-methyl-3-(3-methylbut-2-enyl)oxiran-2-yl)-1-oxaspiro[2.5]octan-6-yl 2-thia-6-azaspiro[3.3]heptane 2,2-dioxide-6-carboxylate] | – | – | 2% | – | 50 to 500 nM
12 | CO[C@@H]1[C@H](OC(=O)N2C[C@@H]3[C@H](C2)[C@H]3C(N)=O)CC[C@]2(CO2)[C@H]1[C@@]1(C)O[C@@H]1CC=C(C)C [Example 34, (1R,5S,6R)-(3R,4S,5S,6R)-5-methoxy-4-((2R,3R)-2-methyl-3-(3-methylbut-2-en-1-yl)oxiran-2-yl)-1-oxaspiro[2.5]octan-6-yl 6-carbamoyl-3-azabicyclo[3.1.0]hexane-3-carboxylate] | < 50 nM | – | 3% | – | –
13 | CO[C@@H]1[C@H](OC(=O)NC2CC3(CCN(C)CC3)C2)CC[C@]2(CO2)[C@H]1[C@@]1(C)O[C@@H]1CC=C(C)C [Example 7, (3R,4S,5S,6R)-5-methoxy-4-((2R,3R)-2-methyl-3-(3-methylbut-2-enyl)oxiran-2-yl)-1-oxaspiro[2.5]octan-6-yl 7-methyl-7-azaspiro[3.5]nonan-2-ylcarbamate formate] | < 50 nM | – | 1.9% | – | –
